Source: US9611262B2, “Substituted 2-azabicycles and their use as orexin receptor modulators” (JANSSEN PHARMACEUTICA NV, priority 2014, dated 2017)

Columns and labels:
[1] = target: rat orexin 1 receptor (Rattus norvegicus, UniProt P56718); assay: Rat orexin 1 receptor radioligand binding (competitive); conditions: HEK293 cells stably expressing rat orexin 1 receptor; 4 nM radioligand; averages of 2-20 runs; read-out: rOX1 Ki
Procedure: (§1) The in vitro affinity of the compounds of the invention for the rat/human orexin 1 and human orexin 2 receptors was determined by competitive radioligand binding using [^3H](1-(5-(2-fluoro-phenyl)-2-methyl-thiazol-4-yl)-1-((S)-2-(5-phenyl-(1,3,4)oxadiazol-2-ylmethyl)-pyrrolidin-1-yl)-methanone) (Langmead et al., 2004) and [^3H]EMPA (n-ethyl-2[96-methoxy-pyridin-3-yl)-(toluene-2-sulfonyl)-amino]-N-pyridin-3-ylmethyl acetamide), respectively (Langmead et al., 2004, British Journal of Pharmacology 141:340-346; Malherbe et al., 2004, British Journal of Pharmacology 156:1326-41).
(§2) Data are analyzed using pc-Sandy macro and graphed on Graphpad Prism 5. For analysis, each concentration point is averaged from triplicate values and the averaged values are plotted on Graphpad Prism. The IC50 was determined by applying the following equation (GraphPad Prism 5.0, San Diego) for one site competition where X=log (concentration) and Y=specific binding. Top denotes the total [^3H]— (1-(5-(2-fluoro-phenyl)-2-methyl-thiazol-4-yl)-1-((S)-2-(5-phenyl-(1,3,4)oxadiazol-2-ylmethyl)-pyrrolidin-1-yl)-methanone) binding, bottom denotes the nonspecific [^3H]— (1-(5-(2-fluoro-phenyl)-2-methyl-thiazol-4-yl)-1-((S)-2-(5-phenyl-(1,3,4)oxadiazol-2-ylmethyl)-pyrrolidin-1-yl)-methanone) binding. Graphpad Prism calculates Ki value from IC50 and the pre-determined Kd values for [^3H]— (1-(5-(2-fluoro-phenyl)-2-methyl-thiazol-4-yl)-1-((S)-2-(5-phenyl-(1,3,4)oxadiazol-2-ylmethyl)-pyrrolidin-1-yl)-methanone) and [^3H]-EMPA. The Ki for each compound is then uploaded into 3DX. Each run comprises individual compounds in triplicate. The data in Table 1 and Table 2 represent averages from between 2-20 runs
Rat and Human Orexin 1 Receptor Radioligand Binding Studies
Human Embryonic Kidney 293 cells (HEK293) stably expressing rat orexin 1 receptor (Genebank accession number NM_001525) or Chinese ovary cells (CHO) stably expressing human orexin 1 receptor (Genebank accession number […]) were grown to confluency in DMEM (Hyclone, cat # SH30022), 10% FBS, 1× Pen/Strep, 1× sodium pyruvate, 10 mM HEPES, 600 μg/mL G418 and DMEM/F12 (Gibco, Cat #11039), 10% FBS, 1× Pen/Strep, 600 μg/mL G418 media, respectively on 150 cm^2 tissue culture plates, washed with 5 mM EDTA in PBS (HyClone Dulbecco's Phosphate Buffered Saline 1× with Calcium and Magnesium, Cat # SH30264.01, hereafter referred to simply as PBS) and scraped into 50 ml tubes. After centrifugation (2K×G, 5 min at 4° C.), the supernatant was aspirated and the pellets frozen and stored at −80° C. Cells were resuspended in PBS in the presence of 1 tablet of protease inhibitor cocktail (Roche, Cat. #11836145001) per 50 mL. […] Competition binding experiments in 96 well polypropylene plates were performed using [^3H]— (1-(5-(2-fluoro-phenyl)-2-methyl-thiazol-4-yl)-1-((S)-2-(5-phenyl-(1,3,4)oxadiazol-2-ylmethyl)-pyrrolidin-1-yl)-methanone) (Moraveck Corporation, specific activity=35.3 Ci/mmol), diluted to a 10 nM concentration in PBS (4 nM final). Compounds were solubilized in 100% DMSO (Acros Organics, Cat. #61042-1000) and tested over a range of 7 concentrations (from 0.1 nM to 10 μM). The final concentration of DMSO in the reactions is equal to or less than 0.1%. Total and nonspecific binding was determined in the absence and presence of 10 μM almorexant. The total volume of each reaction is 200 μL (20 μL of diluted compounds, 80 μL of [^3H]— (1-(5-(2-fluoro-phenyl)-2-methyl-thiazol-4-yl)-1-((S)-2-(5-phenyl-(1,3,4)oxadiazol-2-ylmethyl)-pyrrolidin-1-yl)-methanone) diluted in PBS and 100 μL of the cell suspension). Reactions were run for 60 min at room temperature and terminated by filtration through GF/C filter plates (PerkinElmer, Cat. #6005174) presoaked in 0.3% polyethylenimine using the cell harvester (PerkinElmer Filtermate). The plates were washed 3 times by aspirating 30 ml PBS through the plates. Plates were dried in 55° C. oven for 60 min, scintillation fluid was added, and the radioactivity was counted on a Topcount (Packard). […]

[2] = target: human orexin 2 receptor (Homo sapiens (Human), UniProt O43614); assay: Human orexin 2 receptor radioligand binding ([3H]-EMPA competition); conditions: HEK293 stably expressing human orexin 2 receptor; 2 nM [3H]-EMPA; averages of 2-20 runs; read-out: hOX2 Ki
Procedure: as §1, §2
Human Orexin 2 Receptor Radioligand Binding Studies
HEK293 stably expressing human orexin 2 receptor (Genebank accession number NM_001526) were grown to confluency in DMEM (Hyclone, cat # SH30022), 10% FBS, 1× Pen/Strep, 1× NaPyruvate, 10 mM HEPES, 600 μg/ml G418 media on 150 cm^2 tissue culture plates, washed with 5 mM EDTA in PBS (HyClone Dulbecco's Phosphate Buffered Saline 1× with Calcium and Magnesium, Cat # SH30264.01, hereafter referred to simply as PBS) and scraped into 50 ml tubes. After centrifugation (2K×G, 5 min at 4° C.), the supernatant was aspirated and the pellets frozen and stored at −80° C. Cells were resuspended in PBS in the presence of 1 tablet of protease inhibitor cocktail (Roche, Cat. #11836145001) per 50 mL. […] Compounds were solubilized in 100% DMSO (Acros Organics, Cat. #61042-1000) and tested over a range of 7 concentration (from 0.1 nM to 10 μM). The final concentration of DMSO in the reactions is equal to or less than 0.1%. Total and nonspecific binding was determined in the absence and presence of 10 μM almorexant. The total volume of each reaction is 200 μL (20 μL of diluted compounds, 80 μL of [^3H]-EMPA diluted in PBS and 100 μL of the cell suspension). Reactions were run for 60 min at room temperature and terminated by filtration through GF/C filter plates (PerkinElmer, Cat. #6005174) presoaked in 0.3% polyethylenimine using the cell harvester (PerkinElmer Filtermate). The plates were washed 3 times by aspirating 30 ml PBS through the plates. Plates were dried in 55° C. oven for 60 min, scintillation fluid was added, and the radioactivity was counted on a Topcount (Packard).

Chain of human orexin 2 receptor (O43614 whole entry): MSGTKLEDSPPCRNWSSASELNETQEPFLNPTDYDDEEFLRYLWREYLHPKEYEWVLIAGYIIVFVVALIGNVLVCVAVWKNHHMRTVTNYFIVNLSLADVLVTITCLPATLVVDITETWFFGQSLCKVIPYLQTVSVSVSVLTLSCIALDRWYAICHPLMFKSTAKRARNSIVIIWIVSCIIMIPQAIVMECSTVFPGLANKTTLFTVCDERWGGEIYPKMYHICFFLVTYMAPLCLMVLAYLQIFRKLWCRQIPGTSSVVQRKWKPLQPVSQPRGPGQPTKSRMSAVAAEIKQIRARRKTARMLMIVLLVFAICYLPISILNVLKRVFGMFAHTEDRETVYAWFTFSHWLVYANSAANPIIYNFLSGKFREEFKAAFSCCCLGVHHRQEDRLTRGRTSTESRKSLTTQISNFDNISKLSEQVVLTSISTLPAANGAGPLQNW

Row | Compound | Ki [1] [nM] | Ki [2] [nM]
1 | C[C@@H]1[C@H]2C[C@@H](Oc3ccc(C(F)(F)F)nc3)[C@H](C2)N1C(=O)c1ncccc1-n1nccn1 (relative stereo) [Example 37, (3-(2H-1,2,3-triazol-2-yl)pyridin-2-yl)((1S*,3R*,4R*,6R*)-3-methyl-6-((6-(trifluoromethyl)pyridin-3-yl)oxy)-2-azabicyclo[2.2.1]heptan-2-yl)methanone] | 3720 | > 10000
2 | Cc1ccc(-n2nccn2)c(C(=O)N2[C@H](C)[C@H]3C[C@@H](Oc4ccc(C(F)(F)F)nc4)[C@@H]2C3)n1 (relative stereo) [Example 40, (6-methyl-3-(2H-1,2,3-triazol-2-yl)pyridin-2-yl)((1S*,3R*,4R*,6R*)-3-methyl-6-((6-(trifluoromethyl)pyridin-3-yl)oxy)-2-azabicyclo[2.2.1]heptan-2-yl)methanone] | 544 | > 10000
3 | C[C@@H]1[C@H]2C[C@@H](Oc3ccc(C(F)(F)F)nc3)[C@H](C2)N1C(=O)c1ccccc1-n1nccn1 (relative stereo) [Example 41, (2-(2H-1,2,3-triazol-2-yl)phenyl)((1S*,3R*,4R*,6R*)-3-methyl-6-((6-(trifluoromethyl)pyridin-3-yl)oxy)-2-azabicyclo[2.2.1]heptan-2-yl)methanone] | 300 | > 10000
4 | CC1C2CC(Oc3ccc(C(F)(F)F)cn3)C(C2)N1C(=O)c1ccccc1-c1ncc(F)cn1 (single isomer, unassigned) [Example 19A, (2-(5-fluoropyrimidin-2-yl)phenyl)((1R*,3S*,4S*,6S*)-3-methyl-6-((5-(trifluoromethyl)pyridin-2-yl)oxy)-2-azabicyclo[2.2.1]heptan-2-yl)methanone] | 746 | 
5 | CC1C2CC(Nc3cnc(C(F)(F)F)cn3)C(C2)N1C(=O)c1ccccc1-n1nccn1 (single isomer, unassigned) [Example 68B, (2-(2H-1,2,3-triazol-2-yl)phenyl)((1S*,3R*,4S*,6R*)-3-methyl-6-((5-(trifluoromethyl)pyrazin-2-yl)amino)-2-azabicyclo[2.2.1]heptan-2-yl)methanone] |  | 259
6 | Cc1ccc(-n2nccn2)c(C(=O)N2C(C)C3CC(Nc4cnc(C(F)(F)F)cn4)C2C3)n1 (single isomer, unassigned) [Example 69, (R/S)-(6-methyl-3-(2H-1,2,3-triazol-2-yl)pyridin-2-yl)(3-methyl-6-((5-(trifluoromethyl)pyrazin-2-yl)amino)-2-azabicyclo[2.2.1]heptan-2-yl)methanone] |  | 345
7 | Cc1ccc(-n2nccn2)c(C(=O)N2C(C)C3CC(Nc4cnc(C(F)(F)F)cn4)C2C3)n1 (single isomer, unassigned) [Example 69A, (6-methyl-3-(2H-1,2,3-triazol-2-yl)pyridin-2-yl)((1R*,3S*,4R*,6S*)-3-methyl-6-((5-(trifluoromethyl)pyrazin-2-yl)amino)-2-azabicyclo[2.2.1]heptan-2-yl)methanone] |  | > 10000
8 | Cc1ccc(-n2nccn2)c(C(=O)N2C(C)C3CC(Nc4cnc(C(F)(F)F)cn4)C2C3)n1 (single isomer, unassigned) [Example 69B, (6-methyl-3-(2H-1,2,3-triazol-2-yl)pyridin-2-yl)((1S*,3R*,4S*,6R*)-3-methyl-6-((5-(trifluoromethyl)pyrazin-2-yl)amino)-2-azabicyclo[2.2.1]heptan-2-yl)methanone] |  | 236
9 | C[C@@H]1[C@H]2C[C@@H](Oc3ccc(C(F)(F)F)cn3)[C@H](C2)N1C(=O)c1cccc(-c2ccc(F)cc2)c1 [Example 36, (4′-fluoro-[1,1′-biphenyl]-3-yl)((1S,3R,4R,6R)-3-methyl-6-((5-(trifluoromethyl)pyridin-2-yl)oxy)-2-azabicyclo[2.2.1]heptan-2-yl)methanone] | 845 | > 10000
10 | [2H]C([2H])([2H])[C@]1([2H])[C@H]2C[C@@H](Oc3ccc(C(F)(F)F)cn3)[C@H](C2)N1C(=O)c1cccc(F)c1-n1nccn1 [Example 164, [(1R,2R,4S,5R)-2-deuterio-2-(trideuteriomethyl)-5-[[5-(trifluoromethyl)-2-pyridyl]oxy]-3-azabicyclo[2.2.1]heptan-3-yl]-[3-fluoro-2-(triazol-2-yl)phenyl]methanone] | 5 | 565
11 | [2H]C([2H])([2H])[C@]1([2H])[C@H]2C[C@@H](Oc3ccc(C(F)(F)F)cn3)[C@H](C2)N1C(=O)c1ncc(C)cc1-n1nccn1 [Example 166, [(1R,2R,4S,5R)-2-deuterio-2-(trideuteriomethyl)-5-[[5-(trifluoromethyl)-2-pyridyl]oxy]-3-azabicyclo[2.2.1]heptan-3-yl]-[5-methyl-3-(triazol-2-yl)-2-pyridyl]methanone] |  | 1100
12 | [2H]C([2H])([2H])[C@]1([2H])[C@H]2C[C@@H](Oc3ccc(C(F)(F)F)cn3)[C@H](C2)N1C(=O)c1cc(F)ccc1-c1ncccn1 [Example 167, [(1R,2R,4S,5R)-2-deuterio-2-(trideuteriomethyl)-5-[[5-(trifluoromethyl)-2-pyridyl]oxy]-3-azabicyclo[2.2.1]heptan-3-yl]-(5-fluoro-2-pyrimidin-2-yl-phenyl)methanone] |  | 767
13 | [2H]C1([2H])[C@H]2C[C@@H]([C@@H]1Oc1ccc(C(F)(F)F)cn1)N(C(=O)c1ncc(C)cc1-n1nccn1)[C@@H]2C [Example 200, [(1R,3R,4S,6R)-2,2-dideuterio-6-methyl-3-[[5-(trifluoromethyl)-2-pyridyl]oxy]-5-azabicyclo[2.2.1]heptan-5-yl]-[5-methyl-3-(triazol-2-yl)-2-pyridyl]methanone] |  | 1200
